Data from ChEMBL document CHEMBL5653615 (J Biol Chem, 2013).

Columns and labels:
[1] = molecular target: SRSF protein kinase 2 (Homo sapiens) (UniProt P78362); experiment: Inhibition of human SRPK2 at 18.6 nM by HotSpot assay relative to control
[2] = molecular target: T1, Myotonin-protein kinase (Homo sapiens) (UniProt Q09013); experiment: Inhibition of human DMPK at 18.6 nM by HotSpot assay relative to control
T1 sequence (whole entry): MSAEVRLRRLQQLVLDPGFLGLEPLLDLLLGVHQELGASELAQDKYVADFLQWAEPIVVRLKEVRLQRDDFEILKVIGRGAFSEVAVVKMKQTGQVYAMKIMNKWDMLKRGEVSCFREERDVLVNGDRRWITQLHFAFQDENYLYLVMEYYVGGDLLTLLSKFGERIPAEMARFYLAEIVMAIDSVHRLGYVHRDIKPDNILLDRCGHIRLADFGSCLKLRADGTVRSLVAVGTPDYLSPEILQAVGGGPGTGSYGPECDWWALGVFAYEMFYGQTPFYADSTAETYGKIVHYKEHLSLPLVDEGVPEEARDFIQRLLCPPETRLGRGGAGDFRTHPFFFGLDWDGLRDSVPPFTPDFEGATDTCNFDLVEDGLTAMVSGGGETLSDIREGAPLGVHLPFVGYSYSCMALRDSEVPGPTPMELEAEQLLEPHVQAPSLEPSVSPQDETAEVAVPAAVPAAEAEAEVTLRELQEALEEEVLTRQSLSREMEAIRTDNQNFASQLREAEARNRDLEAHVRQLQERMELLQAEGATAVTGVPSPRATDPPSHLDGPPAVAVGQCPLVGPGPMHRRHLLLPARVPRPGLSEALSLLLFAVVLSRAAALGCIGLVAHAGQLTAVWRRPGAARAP

[3] = molecular target: T2, Ephrin type-A receptor 3 (Homo sapiens) (UniProt P29320); experiment: Inhibition of human EPHA3 at 1.82 nM by HotSpot assay relative to control
T2 sequence (whole entry): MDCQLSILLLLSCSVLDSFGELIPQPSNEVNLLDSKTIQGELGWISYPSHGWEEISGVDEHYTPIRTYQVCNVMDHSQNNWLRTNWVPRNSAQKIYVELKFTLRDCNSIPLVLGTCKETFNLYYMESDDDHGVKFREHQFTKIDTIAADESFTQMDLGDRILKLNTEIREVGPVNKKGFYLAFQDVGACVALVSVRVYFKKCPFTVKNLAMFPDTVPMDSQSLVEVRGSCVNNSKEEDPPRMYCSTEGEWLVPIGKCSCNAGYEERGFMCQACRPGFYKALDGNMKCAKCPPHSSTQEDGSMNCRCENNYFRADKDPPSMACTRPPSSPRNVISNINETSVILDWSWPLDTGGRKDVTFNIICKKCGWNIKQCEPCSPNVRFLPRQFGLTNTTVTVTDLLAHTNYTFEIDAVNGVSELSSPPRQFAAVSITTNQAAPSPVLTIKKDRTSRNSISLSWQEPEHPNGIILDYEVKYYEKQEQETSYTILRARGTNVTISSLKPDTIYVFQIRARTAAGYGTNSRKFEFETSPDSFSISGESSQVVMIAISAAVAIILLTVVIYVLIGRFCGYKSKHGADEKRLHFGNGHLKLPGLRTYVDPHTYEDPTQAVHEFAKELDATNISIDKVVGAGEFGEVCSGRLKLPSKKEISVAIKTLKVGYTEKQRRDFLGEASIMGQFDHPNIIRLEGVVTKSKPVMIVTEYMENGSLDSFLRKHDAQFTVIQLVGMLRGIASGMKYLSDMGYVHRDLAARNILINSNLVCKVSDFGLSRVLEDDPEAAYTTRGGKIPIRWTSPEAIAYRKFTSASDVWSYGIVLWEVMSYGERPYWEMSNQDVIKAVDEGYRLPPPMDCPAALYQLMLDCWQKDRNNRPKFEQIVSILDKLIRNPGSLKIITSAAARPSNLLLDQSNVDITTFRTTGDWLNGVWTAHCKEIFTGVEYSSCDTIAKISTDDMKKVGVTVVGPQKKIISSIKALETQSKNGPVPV

[4] = molecular target: Casein kinase I isoform gamma-1 (Homo sapiens) (UniProt Q9HCP0); experiment: Inhibition of human CK1g1 at 1.82 nM by HotSpot assay relative to control
[5] = molecular target: T3, Protein kinase C zeta type (Homo sapiens) (UniProt Q05513); experiment: Inhibition of human PKCzeta at 500 nM by HotSpot assay relative to control
T3 sequence (whole entry): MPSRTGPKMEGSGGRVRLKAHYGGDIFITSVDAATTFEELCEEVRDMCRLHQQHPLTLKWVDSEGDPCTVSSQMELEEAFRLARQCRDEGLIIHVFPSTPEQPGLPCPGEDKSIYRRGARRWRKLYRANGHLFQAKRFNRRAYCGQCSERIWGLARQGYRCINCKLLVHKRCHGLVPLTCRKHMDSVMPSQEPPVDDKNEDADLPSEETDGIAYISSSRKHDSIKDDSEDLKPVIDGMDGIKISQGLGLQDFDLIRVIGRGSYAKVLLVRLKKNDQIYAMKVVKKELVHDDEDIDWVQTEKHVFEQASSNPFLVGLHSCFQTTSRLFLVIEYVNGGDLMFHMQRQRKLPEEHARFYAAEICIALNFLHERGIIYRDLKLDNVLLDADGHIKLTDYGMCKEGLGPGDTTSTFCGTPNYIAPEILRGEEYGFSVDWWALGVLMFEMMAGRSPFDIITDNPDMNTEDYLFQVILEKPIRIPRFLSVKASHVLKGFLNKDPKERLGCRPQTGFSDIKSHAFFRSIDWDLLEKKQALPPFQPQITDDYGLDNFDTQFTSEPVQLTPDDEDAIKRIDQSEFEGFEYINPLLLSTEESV

Sequence of Casein kinase I isoform gamma-1 (Homo sapiens) (Q9HCP0 whole entry, looked up, canonical isoform): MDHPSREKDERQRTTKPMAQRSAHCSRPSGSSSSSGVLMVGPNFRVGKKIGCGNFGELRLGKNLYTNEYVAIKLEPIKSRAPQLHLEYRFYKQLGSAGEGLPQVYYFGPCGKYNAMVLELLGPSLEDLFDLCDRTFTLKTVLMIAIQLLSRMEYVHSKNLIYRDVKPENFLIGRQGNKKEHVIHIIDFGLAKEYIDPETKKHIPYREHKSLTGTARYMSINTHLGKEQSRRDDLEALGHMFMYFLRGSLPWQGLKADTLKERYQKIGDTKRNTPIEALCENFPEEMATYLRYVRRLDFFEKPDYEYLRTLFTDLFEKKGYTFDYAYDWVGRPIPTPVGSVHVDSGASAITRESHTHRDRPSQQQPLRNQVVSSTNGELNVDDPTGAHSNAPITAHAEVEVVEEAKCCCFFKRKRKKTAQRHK
Sequence of SRSF protein kinase 2 (Homo sapiens) (P78362 whole entry, looked up): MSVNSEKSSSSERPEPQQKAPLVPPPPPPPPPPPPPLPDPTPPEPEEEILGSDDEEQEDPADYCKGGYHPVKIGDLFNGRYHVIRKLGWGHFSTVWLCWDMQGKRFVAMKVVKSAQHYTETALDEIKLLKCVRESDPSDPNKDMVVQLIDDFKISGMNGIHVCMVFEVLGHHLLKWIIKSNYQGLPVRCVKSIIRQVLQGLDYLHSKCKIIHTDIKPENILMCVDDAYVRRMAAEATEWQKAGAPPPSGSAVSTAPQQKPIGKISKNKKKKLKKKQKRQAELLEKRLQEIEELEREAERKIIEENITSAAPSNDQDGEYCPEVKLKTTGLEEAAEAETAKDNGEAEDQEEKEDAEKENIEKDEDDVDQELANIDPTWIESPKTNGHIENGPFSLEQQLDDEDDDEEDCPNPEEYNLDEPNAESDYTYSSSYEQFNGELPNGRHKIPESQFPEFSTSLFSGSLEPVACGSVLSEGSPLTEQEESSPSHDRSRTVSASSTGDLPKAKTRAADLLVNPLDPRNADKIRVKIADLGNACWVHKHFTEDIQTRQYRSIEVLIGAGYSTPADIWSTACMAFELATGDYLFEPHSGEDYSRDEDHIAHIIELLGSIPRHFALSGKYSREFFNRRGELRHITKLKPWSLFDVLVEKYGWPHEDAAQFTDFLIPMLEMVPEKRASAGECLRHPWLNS

SMILES: C[C@]1(O)C[C@@H](c2nc(-c3ccc4ccc(-c5ccccc5)nc4c3)c3c(N)nccn32)C1
- inhibition [1]: -1.64%
- inhibition [2]: -3.25%

SMILES: C[C@@]1(C(=O)Nc2ccc(F)nc2)CCCN1c1nc(Nc2cc(C3CC3)n[nH]2)c2cccn2n1
- inhibition [3]: 6.1%
- inhibition [4]: -3.54%

SMILES: Nc1n[nH]c2nnc(-c3c(-c4ccccc4)nn4ccccc34)cc12
- inhibition [5]: 16.1%
